Experimental data as given in US20090270479A1, “Genetic and Epigenetic Alterations In the Diagnosis and Treatment of Cancer” (priority 2005, published 2009).

T1: p107 (human, UniProt P28749 1-1068)
T1 sequence (looked up): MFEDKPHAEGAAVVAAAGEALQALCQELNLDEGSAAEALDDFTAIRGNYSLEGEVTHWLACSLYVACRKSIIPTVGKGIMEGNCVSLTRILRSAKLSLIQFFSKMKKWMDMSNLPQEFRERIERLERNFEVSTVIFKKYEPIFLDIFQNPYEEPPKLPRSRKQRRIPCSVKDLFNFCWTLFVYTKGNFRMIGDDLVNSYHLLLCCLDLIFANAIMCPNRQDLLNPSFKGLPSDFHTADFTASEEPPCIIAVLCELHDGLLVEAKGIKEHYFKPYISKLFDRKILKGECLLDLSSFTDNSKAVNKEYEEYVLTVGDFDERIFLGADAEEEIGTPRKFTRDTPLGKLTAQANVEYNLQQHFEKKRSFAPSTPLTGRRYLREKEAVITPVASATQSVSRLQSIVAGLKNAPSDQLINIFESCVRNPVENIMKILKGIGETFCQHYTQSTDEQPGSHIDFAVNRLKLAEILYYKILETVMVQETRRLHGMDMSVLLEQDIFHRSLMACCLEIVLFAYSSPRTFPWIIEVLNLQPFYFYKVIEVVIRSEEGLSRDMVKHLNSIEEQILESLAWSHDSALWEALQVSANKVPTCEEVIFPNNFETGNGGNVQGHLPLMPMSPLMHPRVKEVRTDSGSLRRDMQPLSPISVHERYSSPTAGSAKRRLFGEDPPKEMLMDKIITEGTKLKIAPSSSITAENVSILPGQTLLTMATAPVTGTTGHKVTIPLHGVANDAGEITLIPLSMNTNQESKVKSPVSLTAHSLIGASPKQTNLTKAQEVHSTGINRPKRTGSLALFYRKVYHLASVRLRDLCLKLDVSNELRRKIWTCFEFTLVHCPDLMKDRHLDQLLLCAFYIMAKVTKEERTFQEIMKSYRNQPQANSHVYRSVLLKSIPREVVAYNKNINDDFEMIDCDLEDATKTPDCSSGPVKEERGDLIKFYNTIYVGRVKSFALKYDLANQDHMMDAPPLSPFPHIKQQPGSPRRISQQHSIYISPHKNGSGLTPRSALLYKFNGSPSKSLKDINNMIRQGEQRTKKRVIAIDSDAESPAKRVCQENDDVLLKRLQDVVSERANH


Tests used:
Weri-Rb1 cells [1] = assay: Cell viability (MTT) / proliferation of Weri-Rb1 cells; type: cell-based, human; conditions: 2.5 μM, after 96 h of treatment, vs untreated
Method: (§1) Weri-Rb1 cell line and 5-Aza-2-dc DNA methyltransferase inhibitor treatment—Human retinoblastoma cell line (Weri-Rb1 ) obtained from the American Type Culture Collection (ATCC, Manassas, Va., USA) was cultured in RPMI 1640 supplemented with 10% FCS at spin ratio of 1:2 once a week. A volume of […] of 5-Aza-2-dc, a DNA methyltransferase inhibitor (Sigma-Aldrich, St. Louis, Mo., USA) was added to medium culture of treated cells.
(§2) Cell viability (MTT) and FACS analysis—Quantitative cell viability was measured by colorimetric assay using a cell proliferation kit (MTT) (Roche Molecular Biochemicals, Mannheim, Germany). A total of 5000 cells/well Weri-Rb1 and 5-Aza-2-dc-treated Weri-Rb1 were grown in microtiter plates (96-well) in a final volume of 100 μl culture medium. The incubation period of cell culture was 24, 48 and 96 h in the presence or absence of the 2.5 μM DNA methyltransferase inhibitor. After incubation period, 10 μl MTT labeling reagent was added to each well to a final concentration […]. MTT is cleaved by growing cells to form formazan crystals which allows quantification of cell viability by spectrdphotometric analysis (ELISA) at 550 nm. Cell viability was expressed as the percentage of the absorbance of drug-treated and untreated cells relative to that of the untreated cells of 0 h. […]

Weri-Rb1 cells [2] = assay: FACS analysis of 5-Aza-2-dc treated Weri-Rb1 cells; type: cell-based, human; conditions: 2.5 μM
Method: as §1, §2

[3] = system: pRb2/p130 expression in Weri-Rb1 cells; assay: Western blot of pRb2/p130 in treated Weri-Rb1 cells; type: cell-based, human; conditions: Weri-Rb1 whole cell lysates, treated 24-96 h, vs untreated control after 96 h culture
Method: as §1
Western blotting—Western blot analysis of pRb/p105 and pRb2/p130 was performed on three fresh samples of primary tumors (samples 8-10). Weri-Rb1 cells and one normal retina sample, obtained from a patient who underwent enucleation for painful absolute glaucoma, served as an experimental control. Fresh tissues were immediately frozen in liquid nitrogen. Furthermore, Weri-Rb1 cells treated and untreated with 5-Aza-2-dc at various times were processed for Western blot analysis. Whole tissues lysates were prepared by resuspending homogenized tissues and pelleted cells in lysis buffer (50 mM Tris/HCl, 5 mM EDTA, 250 mM NaCl, 50 mM NaF, 0.1% Triton X-100, 0.1 mM Na3VO4 plus fresh inhibitors). Equal amounts of 100 μg of total extracts were loaded and resolved on a 7 or 10% SDS-PAGE. The gels were then transferred onto a nitrocellulose filter and checked by using 0.1% Ponceau red. […]

[4] = system: RB2/p130 mRNA in H23 cells; assay: Multiplex RT-PCR of RB2/p130 mRNA in treated H23 cells; type: cell-based, human; conditions: 2.5 μM, beginning at 48 hours after treatment, vs basal level
Method: (§3) Cell cultures and treatment—Cell lines were purchased from the American Type Culture Collection (Rockville, Md.). The cells were cultured in DMEM or RPMI1640 medium supplemented with 10% fetal bovine serum and 2 mM L-glutamine. For treatment, cells were seeded at a density of 5×10^5 cells/100-mm tissue culture dish. 2.5 μM of DNA methyltransferase inhibitor (5-AZA-2-deoxicytidine) was added to the culture medium for up 96 hours.
Multiplex RT-PCR—Multiplex RT-PCR analysis was carried out with 0.2 μg of total RNA from treated and untreated H23 cells. PCR was performed using RB2/p130 primers and β-actin specific primers (SuperScript RT-PCR System, Invitrogen).

[5] = system: pRb2/p130 protein in H23 cells; assay: Western blot of pRb2/p130 in treated H23 cells; type: cell-based, human; conditions: 2.5 μM, observed at 72 hours, maximum at 96 hours
Method: as §3
Western blot analysis of pRb2/p130 was performed using total protein lysates from untreated and 5-AZA-2-deoxicytidine treated H23 cells. Whole cell lysates were prepared in lysis buffer (50 mM Tris/HCl, 5 mM EDTA, 250 mM NaCl, 50 mM NaF, 0.1% Triton-X, 0.1 mM Na3VO4 plus fresh inhibitors). Equal amounts of 100 μg of total extracts were loaded and resolved on a 7% SDS-PAGE. The gels were then transferred onto a nitrocellulose filter and checked by using 0.1% Ponceau red. The monoclonal anti-pRb2/p130 (Transduction Laboratories, Ky., USA) was used at a dilution of 1:800.

p107 = target: T1, p107; assay: co-immunoprecipitation with anti-PAI-2 antibody from nuclear and cytoplasmic lysates of primary human corneal and conjunctival epithelial cells, Western blot with anti-p107
Description: Western blot and chromatin immuoprecipitation assay—Cytoplasmic and nuclear proteins were extracted from 12 couples of paired normal human corneal and conjunctival epithelial cells by using the PARIS kit (Ambion) according to the manufacturer's instructions. Efficient cytoplasmic and nuclear fractionation was confirmed by Western blotting analysis using anti-GAPDH antibody for the cytoplasmic fraction and anti Oct-1 antibody for the nuclear fraction. Immunoprecipitation experiments were performed using the cytoplasmic and nuclear fractions with PAI-2 as immunoprecipitating antibody (N-18, Santa Cruz Biotechnology, Calif.). The presence of pRb2/p130, Rb1/p105 and p107 in both PAI-2 nuclear and cytoplasmic precipitates was assessed with anti-pRb2/p130, anti-Rb1/p105 and p107 antibodies (211.6, C-15 and C-18, respectively; Santa Cruz Biotechnology, Calif.) by Western blotting.
In order to assess whether PAI-2 associated with the retinoblastoma family proteins, PAI-2 was immunoprecipitated from nuclear and cytoplasmic lysates of twelve paired couples of normal primary human corneal and conjunctival epithelial cells. The immunoprecipitates were then analyzed by Western blotting using anti-pRb2/p130, anti-Rb1/p105, anti-p107 and anti-PAI-2 antibodies. For all the cell lines analyzed, anti-PAI-2 antibody co-immunoprecitated pRb2/p130 and Rb1/p105 from both nuclear and cytoplasmic fractions. […]

[6] = listed as 5-AZA-2-deoxycytidine

Molecule | number of cells (proliferation rate) (Weri-Rb1 cells [1]) | amount of apoptotic cells (Weri-Rb1 cells [2]; 96 h, % of treated cells (control 6%)) [%] | G1 arrested cells (Weri-Rb1 cells [2]; after 24 h, % of treated cells (control 30%)) [%] | expression of endogenous pRb2/p130 [3] | RB2/p130 mRNA level [4] | RB2/p130 mRNA level [4, 6] | pRb2/p130 protein level, active hypophosphorylated form [5] | pRb2/p130 protein level, active hypophosphorylated form [5, 6] | binding result (p107)
Nc1ncn([C@H]2C[C@H](O)[C@@H](CO)O2)c(=O)n1 [5-Aza-dC, 5-Aza-2-deoxycytidine] | markedly reduced | 20 | 40 | increased expression | increase | increased | increase | increased | 
plasminogen activator inhibitor type-2 (other, human, UniProt P05120 1-415, looked up, Endogenous protein, immunoprecipitated with anti-PAI-2 antibody; also called PAI-2) MEDLCVANTLFALNLFKHLAKASPTQNLFLSPWSISSTMAMVYMGSRGSTEDQMAKVLQFNEVGANAVTPMTPENFTSCGFMQQIQKGSYPDAILQAQAADKIHSSFRSLSSAINASTGNYLLESVNKLFGEKSASFREEYIRLCQKYYSSEPQAVDFLECAEEARKKINSWVKTQTKGKIPNLLPEGSVDGDTRMVLVNAVYFKGKWKTPFEKKLNGLYPFRVNSAQRTPVQMMYLREKLNIGYIEDLKAQILELPYAGDVSMFLLLPDEIADVSTGLELLESEITYDKLNKWTSKDKMAEDEVEVYIPQFKLEEHYELRSILRSMGMEDAFNKGRANFSGMSERNDLFLSEVFHQAMVDVNEEGTEAAAGTGGVMTGRTGHGGPQFVADHPFLFLIMHKITNCILFFGRFSSP |  |  |  |  |  |  |  |  | no binding
